According to patent US20210301038A1, “POLYSIALIC ACID AND DERIVATIVES THEREOF, PHARMACEUTICAL COMPOSITION AND METHOD OF PRODUCING POLYSIALIC ACID” (Medizinische Hochschule Hannover (MHH), priority 2018, published 2021):

How the values were obtained:
[1] = system: dissociated hippocampal cultures (primary neural cells); assay: MTT assay of neural cell viability; assay type: cell-based, mouse; details: 30 to 1000 nM, 48 hours, from 10th day in vitro; DP10 effect at 30, 100 and 300 nM
Protocol: Primary hippocampal cells were dissociated from embryonic mice on embryonic day 18. To prepare the primary neural cultures, pregnant C57/BL6J mice were sacrificed by cervical dislocation. Embryos were decapitated, and the hippocampi isolated from brains under sterile conditions and dissected. Enzymatic digestion by 0.25% trypsin/EDTA solution was followed by separation of the cells in serum-containing medium via trituration (10 passes, 1 ml pipette). The primary cells were seeded onto 96-well plates coated with 100 μg/ml poly-lysine and 20 μg/ml laminin. The plating density was 20,000 cells per well. First, 200 μl Dulbecco's modified Eagle's medium (DMEM) was applied per well (supplemented with 1% penicillin-streptomycin and 1% L-glutamine and 2% B27). After incubation for 2 h at 37° C./5% CO2, the medium was exchanged with the pre-warmed Neurobasal medium including 1% penicillin-streptomycin, 1% L-glutamine, and 2% B27. The cells—predominantly neurons and astrocytes—were incubated at 37° C. in 5% CO2 humidified atmosphere for 10 days before administration of reagents.
The assay was performed as described elsewhere with minor modifications (Khalid et al., 2018). Primary neural cells (see above) grown in a 96-well plate were exposed to drugs/vehicles for 48 h at 37° C./5% CO2. After aspiration of culture media, a washing was done with 100 μl phosphate buffered saline (PBS, pH=7.2). Then, PBS was completely removed, and 100 μl phenol red-free pre-warmed Neurobasal media and 50 μl MTT solution (3-(4,5-dimethylthiazol-2-yl)-2,5-diphenyltetrazolium bromide, 5 mg/ml; dissolved in PBS) were added to each well and plates were incubated for 4 h in an incubator. […] DMSO destroyed the cells and released the formazan, which was detected by optical density value at 560 nm, measured using a plate reader. Optical density values for wells containing cells were corrected by subtracting values measured in cell-free wells prepared and treated in the same way as wells containing control cells.

[2] = system: NMDAR-EPSCs (GluN1/GluN2B receptors); assay: Evoked NMDAR-EPSCs, whole-cell patch-clamp of layer V pyramidal neurons in sham- or endoNF-treated mPFC slices; assay type: cell-based, mouse; details: for inhibition of NMDAR-EPSC amplitude: sham-treated mPFC slices, DP12 1 μg/ml, then subsequently applied 0.3 μM Ro 25-6981
Text: Each mouse was quickly sacrificed by cervical dislocation. After decapitation, the brain was rapidly removed from the skull and placed in ice-cold artificial cerebrospinal fluid (aCSF) equilibrated with 95% O2/5% CO2, which was composed of the following (in mM): 250 sucrose, 24 NaHCO3, 25 glucose, 2.5 KCl, 1.25 NaH2PO4, 2 CaCl2, and 1.5 MgCl2 (osmolarity 345-350 mOsm/kg, pH 7.4). Using a VT1200S vibratome (Leica, Nussloch, Germany), coronal slices containing the prelimbic and infralimbic cortices (1.9-1.3 mm anterior to bregma) were cut 350 μm or 400 μm thick, for patch clamp and extracellular recordings, respectively, in the same sucrose-containing aCSF. Then, the slices were transferred to a slice holding chamber filled with recording aCSF (osmolarity 300-305 mOsm/kg, pH 7.4) that contained 120 mM NaCl instead of sucrose (Eckhardt et al., 2000) and was continuously gassed with 95% O2/5% CO2.
For endoNF treatment in C57BL/6J mice, slices were first allowed to recover for 20 min at room temperature (22-24° C.) in recording aCSF and were then placed in a 24-well plate to be incubated in 2 ml of aCSF without (sham) or with addition of endoNF (10 μg/ml) at 35° C. for 2 hours. The 24-well plate was installed in a water bath (ED, Julabo, Seelbach, Germany). For field excitatory postsynaptic potential (fEPSP) recordings in knockout and transgenic mice, mPFC slices were incubated in recording aCSF for >2 hours at room temperature before recordings. For patch-clamp recordings in knockout mice, slices were incubated first at 35° C. for 20 min and then at room temperature for >30 min before recordings started. The aCSF was continuously gassed with 95% O2/5% CO2 during all incubation steps and recordings.
For whole-cell patch-clamp recordings, layer V pyramidal neurons were visualized using a SliceScope Pro 6000 equipped with a 40× water-immersion objective and infrared differential interference contrast microscopy (Scientifica, Uckfield, UK). Pyramidal cells were identified by their triangular soma and long apical dendrites, and synaptically evoked excitatory postsynaptic currents (EPSCs) were recorded using patch pipettes (3-5 MQ) fabricated using borosilicate glass capillaries (wall thickness 0.315, length 100, outer diameter 1.5 mm, Hilgenberg) and a DMZ-Zeitz puller (Zeitz Instruments GmbH, Martinsried, Germany). The intracellular pipette solution contained the following (in mM): 140.7 Cs-methane-sulfonate, 5 NaCl, 1 MgCl2, 0.2 EGTA, 10 HEPES, 3 ATP-Mg, 0.3 Na-GTP, and 3.1 QX-314 (osmolarity 295 mOsm/kg, adjusted to pH 7.2 with CsOH). EPSCs were evoked by electrical pulses (0.2 ms) at 0.033 Hz via a glass pipette placed in layer II/III of the mPFC (identically to fEPSPs). Mixed EPSCs showing a fast AMPAR-mediated component and a slow NMDAR-mediated component were recorded at a −60 mV holding potential in whole-cell voltage-clamp mode in normal aCSF. The stimulation intensity was adjusted to evoke mixed EPSCs with amplitudes of approximately 300 pA. The slow NMDAR-mediated component of EPSCs was pharmacologically isolated at −60 mV in modified aCSF containing low Mg^2+ (0.1 mM) and high Ca^2+ (3.2 mM, for adjustment of divalent cation concentrations), the selective antagonist of α-amino-3-hydroxy-5-methyl-4-isoxazolepropionic acid (AMPA)/kainate receptors NBQX (10 μM), and the selective antagonist of γ-aminobutyric acid (GABA)B receptors CGP-55845 (2 μM) (Chen et al., 2003). The washout of Mg^2+ required at least 25 min. Recordings at a holding potential near the resting membrane potential allowed us to obtain stable NMDAR-EPSC recordings from pyramidal cells lasting for 1-1.5 hours. Series resistance (Rs, range 10-25 MΩ) was compensated (20-30%) and monitored continuously. Neurons in which Rs changed by more than 20% throughout the experiment were not included in the analysis. In voltage-clamp mode, membrane potential was not corrected for liquid junction potential. […]

Compound	effect on neural cell viability [1]	decrease of NMDAR-EPSC amplitude ([2]; endoNF-treated slices, 1 μg/ml)	inhibition as % of the mean inhibition produced by Ro 25-6981 applied alone ([2]; endoNF-treated slices, same time window, estimated)	inhibition of NMDAR-EPSC amplitude [2]	reduction of EPSC amplitude on subsequent application after DP1 ([2]; endoNF-treated slices, 0.3 μM)	reduction of NMDAR-EPSC amplitude on subsequent application after DP12 ([2]; endoNF-treated slices, 0.3 μM Ro 25-6981 after DP12)
(α(2→8)Neu5Ac)12 [DP12]	No effects	~25%	~90%	no significant inhibition	–	–
C[C@@H](CN1CCC(Cc2ccccc2)CC1)[C@@H](O)c1ccc(O)cc1.O=C(O)/C=C\C(=O)O [Ro 25-6981, (αR,βS)-α-(4-hydroxyphenyl)-β-methyl-4-(phenylmethyl)-1-piperidinepropanol maleate]	no effects	–	–	no significant inhibition	~20%	marginally
